{"source": "patent US20250387356A1", "about": "(SpringWorks Therapeutics, Inc., priority 2024, published 2025)", "key": {"[1]": {"tested_on": "NF1-associated plexiform neurofibromas (PNs)", "assay": "Phase 2b trial of mirdametinib in adult and pediatric patients: confirmed objective response by BICR volumetric MRI per REiNS criteria", "format": "in vivo, human", "procedure": "Study treatment was administered orally at a twice daily (BID) dose specified in the table below. Dosing was on a 28-day Cycle (4-week course) with a 3 week on/1 week off schedule. The treatment period will last for up to 24 Cycles followed by a 30-day Safety Follow-Up period.\nA partial response was defined as PN decrease ≥20% compared to baseline using centrally read MRI volumetric analysis.\nThe major efficacy outcome measure was confirmed objective response rate (ORR), defined as the percentage of patients with complete response (disappearance of the target PN) or confirmed partial response ([…]). Responses were assessed by blinded independent central review (BICR) using volumetric magnetic resonance imaging (MRI) analysis per Response Evaluation in Neurofibromatosis and Schwannomatosis (REiNS) criteria. A secondary efficacy objective was to determine the duration of response for patients who achieved a confirmed objective response."}, "[2]": {"assay": "Mirdametinib pharmacokinetic parameters (Table A): exposure, absorption, food effect, distribution, elimination", "format": "in vivo", "conditions": "human, plasma, oral"}}, "data": [{"compound": "O=C(NOC[C@H](O)CO)c1ccc(F)c(F)c1Nc1ccc(I)cc1F", "note": "(single isomer, unassigned) [mirdametinib]", "values": [{"measurement": "ORR, also considering patients who achieved a confirmed objective response after cycle 24", "setting": "[1]; adults", "result": 45, "unit": "%"}, {"measurement": "ORR, also considering patients who achieved a confirmed objective response after cycle 24", "setting": "[1]; pediatric patients", "result": 54, "unit": "%"}, {"measurement": "clearance", "setting": "[2]; read-out: Apparent systemic clearance [Mean (% CV)] (converted)", "result": 106, "unit": "mL/min"}, {"measurement": "Vd", "setting": "[2]; read-out: Apparent volume of distribution [Mean (% CV)]", "result": 255, "unit": "L"}, {"measurement": "half-life", "setting": "[2]; read-out: Terminal elimination half-life [Mean (% CV)] (converted)", "result": 1680, "unit": "min"}]}]}
